{"source": "paper PMC2892883", "about": "(Behavioural brain research, 2010)", "target": "mGluR8b (Homo sapiens, UniProt O00222)", "sequence (O00222 34-908 isoform O00222-2)": "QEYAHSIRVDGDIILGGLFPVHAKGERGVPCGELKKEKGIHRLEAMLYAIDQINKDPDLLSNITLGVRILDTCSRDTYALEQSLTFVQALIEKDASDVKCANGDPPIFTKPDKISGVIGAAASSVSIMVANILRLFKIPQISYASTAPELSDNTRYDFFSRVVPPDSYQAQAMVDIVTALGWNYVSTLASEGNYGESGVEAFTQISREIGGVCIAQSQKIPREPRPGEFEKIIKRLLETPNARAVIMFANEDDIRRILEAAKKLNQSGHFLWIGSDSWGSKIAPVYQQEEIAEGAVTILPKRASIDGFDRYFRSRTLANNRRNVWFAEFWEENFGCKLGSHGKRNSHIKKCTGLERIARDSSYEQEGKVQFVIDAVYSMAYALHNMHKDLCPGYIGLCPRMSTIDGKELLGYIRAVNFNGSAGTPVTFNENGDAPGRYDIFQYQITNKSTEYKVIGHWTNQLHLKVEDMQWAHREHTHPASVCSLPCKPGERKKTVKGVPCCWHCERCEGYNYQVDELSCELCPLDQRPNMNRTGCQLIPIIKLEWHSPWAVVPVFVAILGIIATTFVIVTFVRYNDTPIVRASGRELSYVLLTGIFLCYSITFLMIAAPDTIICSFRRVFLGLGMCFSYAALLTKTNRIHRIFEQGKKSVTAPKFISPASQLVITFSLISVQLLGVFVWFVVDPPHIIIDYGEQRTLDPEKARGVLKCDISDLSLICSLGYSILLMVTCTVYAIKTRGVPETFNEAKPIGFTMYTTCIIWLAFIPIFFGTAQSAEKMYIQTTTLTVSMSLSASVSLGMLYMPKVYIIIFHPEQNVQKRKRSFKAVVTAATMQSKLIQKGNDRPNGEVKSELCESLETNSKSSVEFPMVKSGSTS", "test": "[…]GTPγS binding, inhibition of the potentiation by AZ12216052", "type": "cell-based", "data": [{"smiles": "NC(C(=O)O)(c1ccc(P(=O)(O)O)cc1)C1CC1", "note": "(racemic) [CPPG]", "values": [{"measurement": "[35S]GTPγS binding, inhibition of the potentiation by AZ12216052", "result": "The potentiator effect of AZ12216052 on mGluR8 is inhibited by group-II/III antagonists LY341495 and CPPG"}]}]}
